Measurements from patent US20040086901A1, “Database for analyzing gene function and method of analyzing gene function by dspa” (priority 2000, published 2004).

Columns and labels:
Type in all cases: cell-based, mouse
[1] = tested on: NIH3T3 cells overexpressing Ki-ras; experiment: MTT cell viability, Ki-ras overexpressing cells vs parental line; details: Ki-ras high-expressing cells / parental cell line, 3 to 4 days
Description: (§1) With regard to the function-known genes, the genes shown in the left column of Table 2 were used. With regard to the drugs, those shown in Table 1 were dissolved in DMSO to an extent of 100-fold of the maximum concentration for the search of the drugs and used. With regard to the cells, incubated NIH3T3 or ras-NIH3T3 cells were used.
(§2) Full-length cDNA of each function-known genes was incorporated into an expression vector (pRc-CMV, etc.) and transfected into NIH3T3 cells by a common method. Transformed cells were isolated using the resistance to G-418 as an index and the expression of the transfected gene in each cell was investigated by Western blotting method to select a highly expressing line.
(§3) Cell viabilities were measured according to the following procedures.
(§4) 1) From the 2nd to the 11th rows of a 96-well plate were filled with DMEM (50 μl). The 12th row was filled with 100 μl of DMEM.
(§5) 2) The 1st row was filled with 98 μl of DMEM.
(§6) 3) Drugs (2 μl each) were added into the 1st row.
(§7) 4) Continuous double-dilution was conducted from the 1st to the 9th rows. Fifty μl were taken out from the 9th row and discarded. The plate was preserved in a CO2 incubator.
(§8) 5) Cells (each high-expressing cells and the parental cell line) were detached from the medium using a trypsin solution, suspended in 10% CS-DMEM and transferred to a test tube and cell numbers (cell/ml) were counted.
(§9) 6) The cells were diluted to a concentration of 1×10^5 cells/ml, and 50 μl of the cell suspension were added to the 1st to the 11th rows of the plate followed by gently stirring.
(§10) 7) The plate was transferred to the CO2 incubator and incubated for 3 to 4 days.
(§11) 8) MTT (5 mg/ml in PBS) (10 μl) was added to the 1st to the 12th rows of the plate and incubated in the CO2 incubator at 37° C. for 4 hours.
(§12) 9) A reaction stop solution (0.04N HCl in isopropanol) (150 μl) was added followed by mixing well and being allowed to stand at room temperature for about 2 hours.
(§13) 10) Coloration of formazan which was a metabolite of the MTT dye was measured using a microplate reader. The measurement wavelength was 574 nm and the reference wavelength was 655 nm. The 10th and the 11th rows of the plate were 100% controls and the 12th row was a 0% control.
(§14) As an index for the sensitivity of highly gene-expressing cells and the parental cell line to various drugs, each of the IC40 values thereof was specified and ratios of the IC40 values were calculated. FIG. 2 and FIG. 3 are the examples where ratios of IC40 values were calculated from a curve showing the dependency on the concentration of the chemical versus the viability. After that, logarithmic values of ratios of IC40 values were calculated from each gene.

[2] = tested on: NIH3T3 cells overexpressing N-ras; experiment: MTT cell viability, N-ras overexpressing cells vs parental line; details: N-ras high-expressing cells / parental cell line, 3 to 4 days
Description: as §1, §2, §3, §4, §5, §6, §7, §8, §9, §10, §11, §12, §13, §14

[3] = tested on: NIH3T3 cells overexpressing erbB2; experiment: MTT cell viability, erbB2 overexpressing cells vs parental line; details: erbB2 high-expressing cells / parental cell line, 3 to 4 days
Description: as §1, §2, §3, §4, §5, §6, §7, §8, §9, §10, §11, §12, §13, §14

[4] = tested on: NIH3T3 cells overexpressing p16/INK4A; experiment: MTT cell viability, p16/INK4A overexpressing cells vs parental line; details: p16/INK4A high-expressing cells / parental cell line, 3 to 4 days
Description: as §1, §2, §3, §4, §5, §6, §7, §8, §9, §10, §11, §12, §13, §14

[5] = tested on: NIH3T3 cells overexpressing Bax; experiment: MTT cell viability, Bax overexpressing cells vs parental line; details: 3 to 4 days
Description: as §1, §2, §3, §4, §5, §6, §7, §8, §9, §10, §11, §12, §13
(§15) As an index for the sensitivity of highly gene-expressing cells and the parental cell line to various drugs, each of the IC40 values thereof was specified and ratios of the IC40 values were calculated. […] After that, logarithmic values of ratios of IC40 values were calculated from each gene.

[6] = tested on: NIH3T3 cells overexpressing cAMP-PK-CS; experiment: MTT cell viability, cAMP-PK-CS overexpressing cells vs parental line; details: cAMP-PK-CS high-expressing cells / parental cell line, 3 to 4 days
Description: as §1, §2, §3, §4, §5, §6, §7, §8, §9, §10, §11, §12, §13, §15

[7] = tested on: NIH3T3 cells overexpressing calpastatin; experiment: MTT cell viability, calpastatin overexpressing cells vs parental line; details: calpastatin high-expressing cells / parental cell line, 3 to 4 days
Description: as §1, §2, §3, §4, §5, §6, §7, §8, §9, §10, §11, §12, §13, §14

[8] = tested on: NIH3T3 cells overexpressing Regucalcin; experiment: MTT cell viability, Regucalcin overexpressing cells vs parental line; details: Regucalcin high-expressing cells / parental cell line, 3 to 4 days
Description: as §1, §2, §3, §4, §5, §6, §7, §8, §9, §10, §11, §12, §13, §14

[9] = tested on: NIH3T3 cells overexpressing cystatin E; experiment: MTT cell viability, cystatin E overexpressing cells vs parental line; details: cystatin E high-expressing cells / parental cell line, 3 to 4 days
Description: as §1, §2, §3, §4, §5, §6, §7, §8, §9, §10, §11, §12, §13, §14

[10] = tested on: NIH3T3 cells overexpressing caspase-1; experiment: MTT cell viability, caspase-1 overexpressing cells vs parental line; details: caspase-1 high-expressing cells / parental cell line, 3 to 4 days
Description: as §1, §2, §3, §4, §5, §6, §7, §8, §9, §10, §11, §12, §13, §15

[11] = tested on: NIH3T3 cells overexpressing caspase-3; experiment: MTT cell viability, caspase-3 overexpressing cells vs parental line; details: caspase-3 high-expressing cells / parental cell line, 3 to 4 days
Description: as §1, §2, §3, §4, §5, §6, §7, §8, §9, §10, §11, §12, §13, §15

[12] = tested on: NIH3T3 cells overexpressing caspase-2; experiment: MTT cell viability, caspase-2 overexpressing cells vs parental line; details: caspase-2 high-expressing cells / parental cell line, 3 to 4 days
Description: as §1, §2, §3, §4, §5, §6, §7, §8, §9, §10, §11, §12, §13, §14

[13] = tested on: NIH3T3 cells overexpressing RhoA; experiment: MTT cell viability, RhoA overexpressing cells vs parental line; details: RhoA high-expressing cells / parental cell line, 3 to 4 days
Description: as §1, §2, §3, §4, §5, §6, §7, §8, §9, §10, §11, §12, §13, §14

[14] = tested on: NIH3T3 cells overexpressing STAT1; experiment: MTT cell viability, STAT1 overexpressing cells vs parental line; details: STAT1 high-expressing cells / parental cell line, 3 to 4 days
Description: as §1, §2, §3, §4, §5, §6, §7, §8, §9, §10, §11, §12, §13, §15

[15] = tested on: NIH3T3 cells overexpressing CBP8; experiment: MTT cell viability, CBP8 overexpressing cells vs parental line; details: CBP8 high-expressing cells / parental cell line, 3 to 4 days
Description: as §1, §2, §3, §4, §5, §6, §7, §8, §9, §10, §11, §12, §13, §14

[16] = tested on: NIH3T3 cells, TPA (PKC downreg); experiment: MTT cell viability, TPA (PKC downreg) cells vs parental line; details: 3 to 4 days
Description: as §1, §2, §3, §4, §5, §6, §7, §8, §9, §10, §11, §12, §13, §14

[17] = tested on: NIH3T3 cells overexpressing CaMKIIa; experiment: MTT cell viability, CaMKIIa overexpressing cells vs parental line; details: CaMKIIa high-expressing cells / parental cell line, 3 to 4 days
Description: as §1, §2, §3, §4, §5, §6, §7, §8, §9, §10, §11, §12, §13, §15

[18] = tested on: NIH3T3 cells overexpressing HNF3b; experiment: MTT cell viability, HNF3b overexpressing cells vs parental line; details: HNF3b high-expressing cells / parental cell line, 3 to 4 days
Description: as §1, §2, §3, §4, §5, §6, §7, §8, §9, §10, §11, §12, §13, §15

[19] = tested on: NIH3T3 cells overexpressing HNF4; experiment: MTT cell viability, HNF4 overexpressing cells vs parental line; details: HNF4 high-expressing cells / parental cell line, 3 to 4 days
Description: as §1, §2, §3, §4, §5, §6, §7, §8, §9, §10, §11, §12, §13, §15

[20] = tested on: NIH3T3 cells overexpressing p33/ING1; experiment: MTT cell viability, p33/ING1 overexpressing cells vs parental line; details: p33/ING1 high-expressing cells / parental cell line, 3 to 4 days
Description: as §1, §2, §3, §4, §5, §6, §7, §8, §9, §10, §11, §12, §13, §14

[21] = Bax (first of two Bax lines) high-expressing cells / parental cell line
[22] = Bax (second of two Bax lines) high-expressing cells / parental cell line

SMILES | logarithmic value of ratio of IC40 values [1] | logarithmic value of ratio of IC40 values [2] | logarithmic value of ratio of IC40 values [3] | logarithmic value of ratio of IC40 values [4] | logarithmic value of ratio of IC40 values [5, 21] | logarithmic value of ratio of IC40 values [5, 22] | logarithmic value of ratio of IC40 values [6] | logarithmic value of ratio of IC40 values [7] | logarithmic value of ratio of IC40 values [8] | logarithmic value of ratio of IC40 values [9] | logarithmic value of ratio of IC40 values [10] | logarithmic value of ratio of IC40 values [11] | logarithmic value of ratio of IC40 values [12] | logarithmic value of ratio of IC40 values [13] | logarithmic value of ratio of IC40 values [14] | logarithmic value of ratio of IC40 values [15] | logarithmic value of ratio of IC40 values [16] | logarithmic value of ratio of IC40 values [17] | logarithmic value of ratio of IC40 values [18] | logarithmic value of ratio of IC40 values [19] | other results
CNc1ccc2oc(C[C@H]3O[C@@]4(CC[C@H]3C)O[C@H]([C@H](C)C(=O)c3ccc[nH]3)[C@H](C)C[C@H]4C)nc2c1C(=O)O [A23187] | 0.06 | 0.20 | −0.07 | 0.00 | 0.00 | −0.09 | −0.08 | −0.12 | 0.03 | 0.22 | −0.22 | 0.28 | 0.48 | 0.26 | 0.31 | 0.22 | −0.22 | 0.00 | −0.16 | 0.19 | logarithmic value of ratio of IC40 values [20]: 0.26
CCCC[C@@H](C)/C=C(C)/C=C(\C)C(=O)NC1=C[C@@](O)(/C=C/C=C/C=C/C(=O)NC2=C(O)CCC2=O)[C@@H]2O[C@@H]2C1=O [Manumycin, manumycin] | −0.24 | −0.09 | −0.05 | 0.08 | −0.07 | 0.06 | 0.08 | 0.02 | 0.04 | 0.00 | −0.06 | 0.04 | 0.08 | −0.04 | 0.00 | 0.09 | 0.03 | 0.00 | −0.06 | 0.00 | logarithmic value of ratio of IC40 values [20]: 0.18
